Key:
[1] = target: Carbonic anhydrase 2 (Homo sapiens) (UniProt P00918)
Description: Inhibition of human carbonic anhydrase 2 at 20 degC by CO2 hydration method

[2] = target: T1, Carbonic anhydrase (Methanobacterium thermoautotrophicum) (UniProt Q50565); details: Methanothermobacter thermautotrophicus
T1 sequence (whole entry): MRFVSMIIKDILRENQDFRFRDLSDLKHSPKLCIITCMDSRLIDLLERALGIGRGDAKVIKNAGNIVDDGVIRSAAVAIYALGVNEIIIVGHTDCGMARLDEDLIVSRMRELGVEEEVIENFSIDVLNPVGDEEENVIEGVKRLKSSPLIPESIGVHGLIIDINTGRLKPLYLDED
Description: Inhibition of Methanobacterium thermoautotrophicum Cab at 20 degC by CO2 hydration method

[3] = target: Carbonic anhydrase 1 (Homo sapiens) (UniProt P00915)
Sequence of Carbonic anhydrase 1 (Homo sapiens) (P00915 2-261 limits assumed): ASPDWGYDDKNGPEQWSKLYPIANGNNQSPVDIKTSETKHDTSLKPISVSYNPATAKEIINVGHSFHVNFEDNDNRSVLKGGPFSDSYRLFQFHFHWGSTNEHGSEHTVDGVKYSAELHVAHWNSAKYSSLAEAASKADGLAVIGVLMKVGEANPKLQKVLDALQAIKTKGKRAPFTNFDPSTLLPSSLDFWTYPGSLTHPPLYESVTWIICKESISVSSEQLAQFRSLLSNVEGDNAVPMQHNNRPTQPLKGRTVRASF
Description: Inhibition of human carbonic anhydrase 1 at 20 degC by CO2 hydration method

Description for Cryptococcus neoformans: Inhibition of Cryptococcus neoformans Can2 at 20 degC by CO2 hydration method

NS(=O)(=O)O
Kinact (Cryptococcus neoformans): 8.22 mM | Kinact [1]: 0.39 mM | Kinact [2]: 44 mM | Kinact [3]: 0.021 mM
